# ± gives the expanded uncertainty stated by the source.
# Tests used:
# [1] = 298.15 K, 100 kPa, Liquid; for viscosity: Falling or rolling sphere viscometry; for mass density: Vibrating tube method
# [2] = xn = mol fraction of the nth substance listed; details: 298.2 K, 100 kPa, Liquid, x1 = 0.0843
# [3] = wn = mass fraction of the nth substance listed; details: 298.2 K, 100 kPa, Liquid; for viscosity: Falling or rolling sphere viscometry; for mass density: Vibrating tube method
structure (smiles),measurement,setting,value
C=CCc1ccc(O)c(OC)c1 [2-hydroxy-5-allylanisole],viscosity,[1],6.98 ± 0.08 mPa·s
same,mass density,[1],1062 ± 2 kg/m3
"C=CC(C)(O)CCC=C(C)C (stereo not drawn) [3,7-dimethyl-1,6-octadien-3-ol]",viscosity,[1],4.35 ± 0.05 mPa·s
same,mass density,[1],857.3 ± 1.7 kg/m3
"C/C1=C\CC/C(C)=C/CC(C)(C)/C=C/C1 [(E,E,E)-2,6,6,9-tetramethyl-1,4,8-cycloundecatriene] + C=C1CC/C=C(\C)CC[C@@H]2[C@@H]1CC2(C)C",viscosity,[2]; Falling or rolling sphere viscometry,5.87 ± 0.07 mPa·s
same,mass density,[2]; Vibrating tube method,897.1 ± 1.8 kg/m3
C=C(C)[C@H]1CC=C(C)CC1 [(R)-1-methyl-4-(1-methylethenyl)cyclohexene],viscosity,[1],0.87 ± 0.01 mPa·s
same,mass density,[1],839.1 ± 1.7 kg/m3
CCO [ethanol],viscosity,[1],1.13 ± 0.01 mPa·s
same,mass density,[1],785.1 ± 1.6 kg/m3
CCO [ethanol] + O,viscosity,[3]; w2 = 0.061,1.31 ± 0.02 mPa·s
same,viscosity,[3]; w2 = 0.124,1.46 ± 0.02 mPa·s
same,viscosity,[3]; w2 = 0.172,1.64 ± 0.04 mPa·s
same,viscosity,[3]; w2 = 0.233,1.8 ± 0.03 mPa·s
same,viscosity,[3]; w2 = 0.276,1.87 ± 0.02 mPa·s
same,viscosity,[3]; w2 = 0.34,1.9 ± 0.1 mPa·s
same,viscosity,[3]; w2 = 0.41,2.19 ± 0.15 mPa·s
same,viscosity,[3]; w2 = 0.5,2.31 ± 0.03 mPa·s
same,viscosity,[3]; w2 = 0.62,2.34 ± 0.02 mPa·s
same,mass density,[3]; w2 = 0.061,802.5 ± 1.9 kg/m3
same,mass density,[3]; w2 = 0.124,819.5 ± 2 kg/m3
same,mass density,[3]; w2 = 0.172,833.4 ± 3.1 kg/m3
same,mass density,[3]; w2 = 0.233,848.2 ± 3.3 kg/m3
same,mass density,[3]; w2 = 0.276,857.9 ± 2.6 kg/m3
same,mass density,[3]; w2 = 0.34,861.8 ± 9 kg/m3
same,mass density,[3]; w2 = 0.41,887.3 ± 18 kg/m3
same,mass density,[3]; w2 = 0.5,908.8 ± 4.9 kg/m3
same,mass density,[3]; w2 = 0.62,935.2 ± 9 kg/m3
C=CC(C)(CCC=C(C)C)OC(C)=O (stereo not drawn) [linalool acetate],viscosity,[1],2.3 ± 0.03 mPa·s
same,mass density,[1],898.6 ± 1.8 kg/m3
C=CCc1ccc(OC)c(OC)c1 [methyleugenol],viscosity,[1],4.23 ± 0.04 mPa·s
same,mass density,[1],1031 ± 2 kg/m3
O [water],viscosity,[1],0.89 ± 0.01 mPa·s
